{"source": "patent US6590140B1", "about": "“Metal-regulated transporters and uses therefor” (Trustees of Dartmouth College, priority 1996, dated 2003)", "key": {"[1]": {"target": "T1, low affinity zinc uptake system (Zrt2p) (Saccharomyces cerevisiae, UniProt Q12436)", "T1 construct": "endogenous in cells; host or cells: S. cerevisiae ZHY1 (zrt1::LEU2) and zinc-replete DY1457; some values come from ZHY1 carrying pMC4 (multicopy genomic ZRT2) or pOE2 (ZRT2 ORF under GAL1)", "T1 sequence (Q12436 whole entry)": "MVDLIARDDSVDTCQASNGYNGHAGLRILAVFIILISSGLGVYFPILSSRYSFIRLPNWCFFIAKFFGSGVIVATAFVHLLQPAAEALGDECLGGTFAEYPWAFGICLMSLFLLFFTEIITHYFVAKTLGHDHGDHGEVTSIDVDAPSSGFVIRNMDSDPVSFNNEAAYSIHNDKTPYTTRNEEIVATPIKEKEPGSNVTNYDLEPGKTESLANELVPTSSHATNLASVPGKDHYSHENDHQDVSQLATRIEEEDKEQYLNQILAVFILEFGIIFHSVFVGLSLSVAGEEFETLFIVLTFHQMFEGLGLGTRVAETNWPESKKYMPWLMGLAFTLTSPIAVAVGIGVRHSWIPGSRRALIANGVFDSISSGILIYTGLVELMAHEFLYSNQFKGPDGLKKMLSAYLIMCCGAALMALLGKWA", "format": "cell-based", "method": "(§1) Zinc uptake assays were performed as described previously for iron uptake (Eide et al. J. Biol. Chem. 267:20774-20781) except that ^65ZnCl2 (Amersham Corp., Arlington Heights, Ill.) and LZM-EDTA were substituted for ^59FeCl3 and LIM-EDTA. Cells were incubated at 30° C. with ^65Zn for five minutes, filtered, and washed with 10 ml ice-cold SSW. Cell-associated radioactivity was measured by liquid scintillation. Kinetic values were derived using KinetAsyst software (IntelliKinetics, Princeton, N.J.). Zinc accumulation was measured in cells grown in LZM medium supplemented with […] ^65Zn plus nonradioactive zinc to the indicated final concentration. Aliquots (0.5 ml) were filtered, washed with 10 ml ice-cold SSW, and counted by liquid scintillation. b-galactosidase activity was assayed as described by Guarente (Guarante, L. (1983) Methods Enzymol101:181-191).\n(§2) Zinc uptake assays were performed as described previously for iron uptake (Eide et al. (1992) J. Biol. Chem. 267:20774-20781) except that ^65ZnCl2 (Amersham) and LZM-EDTA were substituted for ^59FeCI3 and LIM-EDTA, respectively. Cells were incubated for 5 minutes in LZM-EDTA plus the indicated concentration of ^65Zn, collected on glass fiber filters (Schleicher and Schuell), washed with 10 ml ice-cold SSW (1 mM EDTA, 20 mM trisodium citrate, 1 mM KH2PO4, 1 mM CaCl2, 5 mM MgSO4, 1 mM NaCl pH 4.2), and cell-associated radioactivity was measured by liquid scintillation counting. Cells were starved for glucose by incubating them in LZM-EDTA prepared without glucose for one hour at 30° C. prior to assay. Michaelis-Menten kinetic values were determined using […] software (Intellikinetics, Princeton, N.J.). Stock solutions of the chloride salts of Co, Cu, Mg, Mn, and Ni were prepared in distilled water at a concentration of 100 mM. The nonradioactive ZnCl2 stock was prepared at 100 mM in 0.02 N HCl and the FeCl3 stock was prepared at 50 mM in 0.1 N HCl. The statistical significance of the differences of values relative to controls was determined with one-way analysis of variance (ANOVA) followed by a Dunnett multiple comparison test. β-galactosidase activity was assayed in cells harvested at an OD600 of 0.5-2.0 as described by Guarente (Guarente, L. (1983) Methods Enzymol. 101:181-191) and activity is expressed as the change in absorbance at 420 nm×1000 divided by (min×ml of culture used×OD600 of the culture). Cell-associated zinc was measured in parallel cultures supplemented with tracer amounts of ^65Zn (10 μM) and nonradioactive zinc to the indicated final concentration. Aliquots (0.5 ml) were filtered, washed with 10 ml ice-cold SSW, and radioactivity measured by liquid scintillation.\n(§3) To determine if ZRT1 plays a role in zinc uptake, the biochemical properties of this process in wild type cells were first characterized. […] Wild type (FIG. 10, DY1457, squares) and zrt1 mutant (FIG. 10, ZHY1, circles) cells were grown to exponential phase in zinc-limited (open symbols, FIG. 10) and zinc-replete (FIG. 10, closed symbols) media and assayed for zinc uptake rate over a range ZnSO4 concentrations. Zinc-limited media was LZM+10 μM zinc for the wild type and LZM+500 μM zinc for the mutant. Zinc-replete conditions were LZM+1000 μM for both strains. ZHY1(pOE1) cells (FIG. 10, triangles) were grown in zinc-replete SDgal medium.\n(§4) Mutant zrt1 (ZHY1) cells were grown in LZM supplemented with 1 mM ZnCl2. Cells were incubated with 10 μM ^65Zn for the indicated times at either […]"}, "[2]": {"target": "T2, high affinity zinc uptake system (Zrt1p) (Saccharomyces cerevisiae, UniProt P32804)", "T2 construct": "endogenous in cells; host or cells: S. cerevisiae DY1457 (wild type, zinc-limited) and ZHY2 (zrt2); one kinetic value comes from ZHY1 carrying pOE1 (ZRT1 ORF under the GAL1 promoter)", "T2 sequence (P32804 whole entry)": "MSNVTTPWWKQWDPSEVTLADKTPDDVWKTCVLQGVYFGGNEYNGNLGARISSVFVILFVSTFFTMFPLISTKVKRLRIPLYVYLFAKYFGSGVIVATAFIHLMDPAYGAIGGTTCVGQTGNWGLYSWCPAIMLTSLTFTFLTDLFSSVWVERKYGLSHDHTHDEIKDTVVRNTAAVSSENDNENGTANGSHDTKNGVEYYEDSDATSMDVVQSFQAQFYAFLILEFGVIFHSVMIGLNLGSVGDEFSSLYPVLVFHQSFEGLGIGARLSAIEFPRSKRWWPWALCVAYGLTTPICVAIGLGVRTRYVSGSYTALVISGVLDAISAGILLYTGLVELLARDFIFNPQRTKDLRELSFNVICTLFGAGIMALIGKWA", "assay": "65Zn uptake assay in yeast, high affinity zinc uptake system", "format": "cell-based", "method": "as §1, §2, §3, §4"}, "zrt1 mutant (ZHY1) cells": {"test_system": "zrt1 mutant (ZHY1) cells", "format": "cell-based, Saccharomyces cerevisiae", "details": "500 μM metal added to iron-limiting medium LIM (1 mM EDTA)", "method": "Strains used were DY1457 (MATα ade6 can1 his3 leu2 trp1 ura3) and ZHY1 (MaTα ade6 can1 his3 leu2 trp1 ura3 zrt1:: LEU2). Yeast were grown in standard culture media (SD, YPD) (Eide, D., Davis-Kaplan S., Jordan, I., Sipe, D., and Kaplan, J. (199: 2) J. Biol. Chem. 267, 20774-20781) supplemented with necessary auxotrophic requirements and either 2% glucose or 2% galactose. A zinc-limiting medium (LZM) was prepared in the same manner as LIM (Eide and Guarenete (1992) J. Gen. Microbiol. 138:347-354) except that […]. Cell number in liquid cultures was determined by measuring the optical density of cell suspensions at 600 nm (A600) and converting to cell number with a standard curve.\nStrains used were DY1457 (MATα ade6 can1 his3 leu2 trp1 ura3), ZHY1 (AMTα ade6 can1 his3 leu2 trp1 ura3 zrt1::LEU2), ZHY2 (MATα ade6 can1 his3 leu2 trp1 ura3 zrt2::HIS3), and ZHY3 (MATα ade6 can1 his3 leu2 trp1 ura3 zrt1::LEU2 zrt2::HIS3). Yeast were grown in YP or SD media (Sherman et al. (1986) Methods in Yeast Genetics, Cold Spring Harbor Laboratory, Cold Spring Harbor, N.Y.) supplemented with necessary auxotrophic requirements and either 2% glucose or 2% galactose. Zinc-limiting YP and SD agar plates contained either bathophenanthroline disulfonate (BPS, 200 μM) or EDTA (1 mM), respectively. A liquid zinc-limiting medium (low zinc medium, LZM) was prepared in the same manner as low iron medium (LIM) (Eide and Guarente (1992) J. Gen. Microbiol. 138:347-354) except that the […]. LZM is similar in composition to SD medium with two modifications essential to controlling zinc availability. First, 1 mM EDTA is added to provide buffering for the concentration of free metal ions. Second, the medium is pH-buffered at 4.2 with 20 mM citrate to prevent pH changes that could alter the metal binding ability of EDTA. LZM was also prepared without EDTA ([…]) which is less zinc-limiting because the predominant chelator in this medium, citrate, binds zinc with less affinity than does EDTA. The concentrations of free (i.e. unchelated) zinc were calculated using MAXCHELATOR software (Chris Patton, Stanford University). Cell number in liquid cultures was determined by measuring the absorbance of cell suspensions at 600 nm (OD600) and converting to cell number with a standard curve.\nTo examine the function of ZRT1, a disruption mutation, zrt1::LEU2, was constructed by inserting the LEU2 gene into the center of ZRT1 (FIG. 6). This zrt1 disruption allele was then introduced into a haploid yeast strain. […] Because of the high EDTA concentration in LIM (1 mM), this medium is expected to have low available levels of other metals that are bound tightly by this chelator. Supplements of other metals were tested for improved growth of the zrt1 mutant in LIM. […] To study this effect further, a low zinc medium, LZM, was developed in which cell growth could be limited by zinc deficiency and the growth response of the wild type and zrt1 mutant strains to increasing levels of supplemented zinc was examined. Wild type (DY1457, squares) and zrt1 mutant (ZHY1, circles) cells were inoculated into LZM supplemented with the indicated amount of ZnSO4 and grown for 16 hours prior to cell number determination. […] Mutant zrt1 cells attained this same maximum number of cell divisions only with zinc supplements of 750 μM or more, i.e. a 75-fold increase in the zinc requirement of the zrt1 mutant compared to the wild type.\nTo further assess the role of the low affinity system as a source of zinc, growth of wild type and zrt2 cells in a zinc-limiting medium, LZM, supplemented with increasing amounts of zinc was examined. The same strains as in FIG. 15 were grown for six hours in SD glucose medium, harvested, washed in LZM, and reinoculated into either LZM (FIG. 15A) or LZM-EDTA (FIG. 15B) supplemented with the indicated concentrations of ZnCl2 ([Zn]T). […]"}, "IRT1": {"target": "T3, IRT1 (Arabidopsis thaliana, UniProt Q38856)", "T3 construct": "contain a single 1017 bp open reading frame capable of encoding a polypeptide of 339 amino acids; expressed in transfected cells; host or cells: S. cerevisiae fet3 fet4 strain DEY1453 carrying pIRT-1 (pFL61 library vector, phosphoglycerate kinase promoter)", "T3 sequence (Q38856 9-347 limits assumed)": "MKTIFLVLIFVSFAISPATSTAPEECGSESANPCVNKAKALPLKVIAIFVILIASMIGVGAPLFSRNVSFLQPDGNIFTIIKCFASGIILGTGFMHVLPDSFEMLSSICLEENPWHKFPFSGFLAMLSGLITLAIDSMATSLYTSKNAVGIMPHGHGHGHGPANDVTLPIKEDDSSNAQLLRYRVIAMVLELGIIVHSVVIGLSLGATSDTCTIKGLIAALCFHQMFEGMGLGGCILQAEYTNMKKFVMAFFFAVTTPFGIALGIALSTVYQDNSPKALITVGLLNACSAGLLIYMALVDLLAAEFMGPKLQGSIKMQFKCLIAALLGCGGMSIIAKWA", "assay": "55Fe uptake in fet3 fet4 yeast expressing IRT1", "format": "cell-based", "details": "for effect on the rate of iron uptake by IRT1: 10 μM metal, 10 times the radiolabeled iron, Fe(II) with 1 mM ascorbate, 10 min", "method": "Iron uptake assays using ^55FeCl3 (Amersham, Arlington Heights, Ill.) were performed as described (Eide, D. et al. (1992) J. Biol. Chem. 267: 20774-20781) except that MGN (10 mM Mes/2% glucose/1 mM nitrilotriacetic acid, pH 6.1) was used for the assay buffer. Where noted, 1 mM sodium ascorbate was added to reduce Fe(III) to Fe(II). Stock solutions of the chloride salt of each metal (except for iron) were prepared in water at a concentration of 100 mM and diluted into MGN to a final concentration of 10 μM before addition of the cells. The ^56FeCl3 stock was 50 mM prepared in 0.1 M HCl. The statistical significance of differences in values relative to controls was determined using STATVIEW software (Abacus Concepts, Berkeley, Calif.). Data was subjected to one-way analysis of variance (ANOVA) followed by a Scheffe's test.\nTo determine if IRT1 encodes an iron transporter, ^55Fe uptake rates were examined in a fet3 fet4 strain expressing IRT1. Little or no uptake was detected at 0° C. for either IRT1-expressing or untransformed control cells (FIG. 2A). The fet3 fet4 mutant strain DEY1453 (circles) and DEY1453 transformed with pIRT-1 (squares) were grown to exponential phase in SD glucose and assayed for iron uptake with ^55Fe. (A) Time- and temperature-dependence of iron accumulation assayed in MGN with 1 mM ascorbate and 5 μM ^55FeCl3 assayed at 30° C. (open symbols) or 0° C. (solid symbols). The dashed line marked with open triangles represents the IRT1-dependent accumulation, i.e., the accumulation of iron by the untransformed strain at 30° C. subtracted from the accumulation of the pIRT-1-bearing strain at 30° C. […] The IRT1-dependent rate was ≈3-fold higher than the control uptake rate. No increased uptake was apparent in strains bearing either of two randomly selected clones from the library, indicating the dependence of these uptake effects on expression of IRT1. The iron uptake activity dependent on IRT1 expression was also concentration-dependent and saturable (FIG. 2B). The same strains as in A were assayed for iron uptake rates for 10 min over a range of concentrations. The dashed lines marked with open triangles represents the IRT1-dependent uptake rate, i.e., background uptake rate of the untransformed strain subtracted from the corresponding rate of the pIRT-1-bearing strains. (Inset) Eadie-Hofstee plot of the IRT1-dependent uptake data. Each point represents the mean of three experiments each performed in duplicate. The standard deviation within each experiment was less that 20% of the corresponding mean.\nThe experiments described above were conducted with iron supplied as Fe(II), i.e., in the presence of ascorbate, an agent capable of reducing Fe(III) to Fe(II). To determine if Fe(II) is the preferred substrate over Fe(III), assays were carried out in the absence of ascorbate where iron is supplied to the cells as Fe(III). […] The fet3 fet4 mutant strain DEY1453 and DEY1453 transformed with pIRT-1 were grown to exponential phase is SD glucose and assayed for iron uptake with 1 μM FeCl3 in MGN for 10 min. The values shown are the IRT1-dependent rates, i.e., the untransformed strain control values were subtracted from the DEY1453 pIRT-1 values and represent the means of four replicates. The asterisks indicate significant of differences from the control values (P<0.05). Assays were performed in the absence [Fe(III)] or presence [Fe(II)] of 1 mM ascorbate. […] Although yeast are capable of reducing Fe(III) to Fe(II) through the action of plasma membrane Fe(III) reductases, this rate of cell-mediated reduction is slower than reduction by ascorbate and therefore may be rate-limiting for IRT1-dependent uptake. To assess if metals other than iron are potential substrates for IRT1, several transition metals were tested for their ability to inhibit accumulation of iron in IRT1-expressing cells (FIG. 3B). Assays were conducted in the absence (−) or presence of 10 μM metal. […]"}, "[3]": {"details": "1 mM ascorbate, control experiments"}}, "note": "Entries after “also recorded” stand apart in the source; their conditions may differ.", "data": [{"smiles": "[K+]", "note": "[K^+]", "values": [{"measurement": "inhibition of zinc uptake by the low affinity system", "setting": "[1]; high extracellular K+ (100 mM)", "result": "not inhibited"}]}, {"smiles": "O=C1O[C@H]([C@@H](O)CO)C([O-])=C1O.[Na+]", "note": "[ascorbate, sodium ascorbate, reference compound]", "values": [{"measurement": "effect on the rate of zinc uptake", "setting": "[1]; [3]", "result": "no effect"}, {"measurement": "effect on the rate of zinc uptake", "setting": "[2]; [3]", "result": "no effect"}]}, {"smiles": "[Cl-].[Cl-].[Mg+2]", "note": "[Mg]", "values": [{"measurement": "effect on zinc uptake by the low affinity system", "setting": "[1]; 200 μM added metal, 20 μM 65Zn, five minutes, zrt1 mutant cells", "result": "did not diminish zinc uptake"}, {"measurement": "effect on zinc uptake by the high affinity system", "setting": "[2]; 20 μM added metal, 2 μM 65Zn, five minutes, zinc-limited wild type", "result": "unaffected"}, {"measurement": "effect on zrt1 growth in LIM", "setting": "zrt1 mutant (ZHY1) cells", "result": "no effect"}]}, {"smiles": "[Cl][Cd][Cl]", "note": "[Cd]", "values": [{"measurement": "inhibition of IRT1-mediated Fe(II) uptake in yeast (summary statement)", "setting": "IRT1", "result": "inhibitors of IRT1-mediated Fe(II) uptake; also recorded: strongly inhibited"}, {"measurement": "effect on the rate of iron uptake by IRT1", "setting": "IRT1", "result": "potent inhibitors"}]}, {"smiles": "[Cl-].[Cl-].[Sr+2]", "note": "[Sr]", "values": [{"measurement": "effect on the rate of iron uptake by IRT1", "setting": "IRT1", "result": "no significant effect"}]}]}
